From ChEMBL document CHEMBL1909046, “DrugMatrix in vitro pharmacology data”
pIC50, pKi: −log10 of the molar value.

Assays:
Cytochrome P450 2C9 = Cytochrome P450 2C9 (Homo sapiens, UniProt P11712)
Cytochrome P450 1A2 = biological target: T1, Cytochrome P450 1A2 (Homo sapiens, UniProt P05177)
T1 sequence (P05177 whole entry): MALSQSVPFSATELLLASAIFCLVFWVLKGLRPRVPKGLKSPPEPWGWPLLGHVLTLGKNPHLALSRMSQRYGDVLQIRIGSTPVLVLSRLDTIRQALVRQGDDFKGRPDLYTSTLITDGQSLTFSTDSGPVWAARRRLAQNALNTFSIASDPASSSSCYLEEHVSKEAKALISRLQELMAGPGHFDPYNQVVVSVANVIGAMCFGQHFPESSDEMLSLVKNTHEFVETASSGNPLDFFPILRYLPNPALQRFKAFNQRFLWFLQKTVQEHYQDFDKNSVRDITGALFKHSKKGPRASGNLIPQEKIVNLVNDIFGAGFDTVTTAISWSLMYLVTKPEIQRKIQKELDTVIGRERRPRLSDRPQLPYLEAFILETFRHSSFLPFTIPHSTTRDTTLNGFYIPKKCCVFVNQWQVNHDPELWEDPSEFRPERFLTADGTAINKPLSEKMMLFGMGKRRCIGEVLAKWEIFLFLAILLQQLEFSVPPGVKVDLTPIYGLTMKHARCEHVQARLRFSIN

Estrogen receptor = biological target: T2, Estrogen receptor (Homo sapiens, UniProt P03372); test: biochemical
T2 sequence (P03372 whole entry): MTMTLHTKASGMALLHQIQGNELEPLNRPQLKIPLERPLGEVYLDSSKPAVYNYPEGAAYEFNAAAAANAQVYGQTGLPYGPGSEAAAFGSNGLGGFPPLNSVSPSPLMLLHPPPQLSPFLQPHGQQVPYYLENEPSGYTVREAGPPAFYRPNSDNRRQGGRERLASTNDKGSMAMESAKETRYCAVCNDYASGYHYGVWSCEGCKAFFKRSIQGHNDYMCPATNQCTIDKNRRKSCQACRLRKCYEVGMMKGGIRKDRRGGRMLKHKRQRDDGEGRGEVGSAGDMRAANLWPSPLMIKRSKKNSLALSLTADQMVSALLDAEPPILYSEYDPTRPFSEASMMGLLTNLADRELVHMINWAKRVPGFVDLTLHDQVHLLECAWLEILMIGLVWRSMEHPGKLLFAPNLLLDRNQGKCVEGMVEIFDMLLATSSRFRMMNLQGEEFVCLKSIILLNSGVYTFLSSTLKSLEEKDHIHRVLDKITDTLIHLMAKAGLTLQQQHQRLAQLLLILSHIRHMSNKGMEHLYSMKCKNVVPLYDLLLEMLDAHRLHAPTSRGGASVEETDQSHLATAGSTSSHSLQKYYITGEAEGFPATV

Cytochrome P450 2C9, sequence (P11712 whole entry): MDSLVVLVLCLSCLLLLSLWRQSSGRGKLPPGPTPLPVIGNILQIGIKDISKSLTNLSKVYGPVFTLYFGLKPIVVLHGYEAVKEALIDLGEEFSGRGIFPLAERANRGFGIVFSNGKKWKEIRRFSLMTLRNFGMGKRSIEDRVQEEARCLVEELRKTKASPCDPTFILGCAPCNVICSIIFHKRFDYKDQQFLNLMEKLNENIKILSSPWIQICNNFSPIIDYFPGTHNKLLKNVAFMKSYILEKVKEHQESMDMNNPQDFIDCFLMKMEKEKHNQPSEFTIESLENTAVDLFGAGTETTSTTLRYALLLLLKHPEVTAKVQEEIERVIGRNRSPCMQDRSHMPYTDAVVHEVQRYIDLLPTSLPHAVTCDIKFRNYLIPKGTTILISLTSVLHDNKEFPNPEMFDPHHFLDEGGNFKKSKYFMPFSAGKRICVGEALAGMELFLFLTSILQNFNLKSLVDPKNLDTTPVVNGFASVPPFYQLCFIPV

Row | SMILES | pIC50 (Cytochrome P450 2C9) | pIC50 (Cytochrome P450 1A2) | pIC50 (Estrogen receptor) | pKi (Estrogen receptor)
1 | CC(=O)O[C@]1(C(C)=O)CC[C@H]2[C@@H]3C=C(C)C4=CC(=O)CC[C@]4(C)[C@H]3CC[C@@]21C [MEGESTROL ACETATE] | 5.00 | – | – | –
2 | COc1cc(CNC(=O)CCCC/C=C/C(C)C)ccc1O [CAPSAICIN] | – | 5.52 | – | –
3 | O=C(c1ccccc1Cl)N1CCC(Cc2ccccc2)CC1 | 5.70 | – | – | –
4 | O=C(/C=C/c1ccc(O)c(O)c1)OCCc1ccccc1 [CAFFEIC ACID PHENETHYL ESTER] | – | – | 5.10 | 5.65
5 | C#C[C@]1(O)CC[C@H]2[C@@H]3CCC4=Cc5oncc5C[C@]4(C)[C@H]3CC[C@@]21C [DANAZOL] | – | – | 4.75 | 5.29
6 | COc1ccc2cc(CCC(C)=O)ccc2c1 [NABUMETONE] | – | 5.30 | – | –
7 | CC[C@]1(O)CC[C@H]2[C@@H]3CCC4=CCCC[C@@H]4[C@H]3CC[C@@]21C | – | – | 5.95 | 6.49
